Measured values reported in patent publication US5298652A, “N-substituted glycines, inhibitors of phospholipase A2” (Hoffmann-La Roche Inc., priority 1992, dated 1994).

These molecules were tested on paw edema induced by phospholipase A2 from Naja naja venom (assay: Phospholipase A2 rat paw edema). Conditions: 30 mg/kg ip, 1 hr prior to PLA2, 2 hr, read-out: % Inhib of PLA2 Paw Edema 2 hr 30 mg/kg ip.
Format: in vivo, Lewis rats
`CCCCCCCCCCCCCCCCCCOc1cccc(C(=O)N(CC(=O)O)CC(=O)O)c1` [Example 4, N-(Carboxymethyl)-N-[3-(octadecyloxy)benzoyl]glycine] gave an inhibition in vivo at 30 mg/kg of 35%.
In the case of `CCCCCCCCCCOc1cc(OCCCCCCCCCC)cc(C(=O)N(CC(=O)O)CC(=O)O)c1` [Example 11, N-(Carboxymethyl)-N-[3,5-bis(decyloxy)benzoyl]glycine], the inhibition in vivo at 30 mg/kg was 0%.
`CCCCCCCCCCCCCCCCCCOc1cc(OCCCOc2cccc([N+](=O)[O-])c2)cc(C(=O)N(CC(=O)O)CC(=O)O)c1` [Example 22, N-(Carboxymethyl)-N-[3-[3-(3-nitrophenoxy)propoxy]-5-(octadecyloxy)benzoyl]glycine] showed an inhibition in vivo at 30 mg/kg of 64%.
In the case of `CCCCCCCCCCCCCCCCCCOc1cc(OCCCOc2cccc(N)c2)cc(C(=O)N(CC(=O)O)CC(=O)O)c1` [Example 23, N-(Carboxymethyl)-N-[3-[3-(3-aminophenoxy)propoxy]-5-(octadecyloxy)benzoyl]glycine], the inhibition in vivo at 30 mg/kg was 40%.
`CCCCCCCCCCCCCCCCCCOc1cc(OCCOCCOCCOCC)cc(C(=O)N(CC(=O)O)CC(=O)O)c1` [Example 48, N-(carboxymethyl)-N-[3-[2-[2-(2-ethoxyethoxy)ethoxy]ethoxy]-(5-octadecyloxy)benzoyl]glycine] was tested, and the inhibition in vivo at 30 mg/kg was 43%.
For `CCCCCCCCCCCCCC(=O)Nc1cc(NC(=O)CCCCCCCCCCCCC)cc(C(=O)N(CC(=O)O)CC(=O)O)c1` [Example 56, N-(Carboxymethyl)-N-[3,5-bis(1-oxotetradecylamino)benzoyl]glycine], the inhibition in vivo at 30 mg/kg was 57%.
`CCCCCCCCCCCCCCCCCCOc1ccc(O)c(C(=O)N(CC(=O)O)CC(=O)O)c1` [Example 62, N-(carboxymethyl)-N-[2-hydroxy-5-(octadecyloxy)benzoyl]glycine] showed an inhibition in vivo at 30 mg/kg of 60%.
With `CCCCCCCCCCCCCCCCCCOc1ccc(C(=O)C(=O)N(CC(=O)O)CC(=O)O)cc1` [Example 65, N-(Carboxymethyl)-N-[2-[4-(octadecyloxy)phenyl]-1,2-dioxoethyl]glycine] the inhibition in vivo at 30 mg/kg was 71%.
With `CCCCCCCCCCOc1cc(OCCCCCCCCCC)cc(C(=O)C(=O)N(CC(=O)O)CC(=O)O)c1` [Example 73, N-(Carboxymethyl)-N-[[3,5-bis(decyloxy)phenyl]-1,2-dioxoethyl]glycine] the inhibition in vivo at 30 mg/kg was 32%.
